According to patent US8367666B2 (priority 2004, dated 2013):
Structures can show the parent of a compound that is named as a salt. Where two headings read alike, the source gives them in different places.

Tests used:
[1] = system: scratching action induced by Compound 48/80; experiment: Anti-pruritic activity test by application (Compound 48/80 scratching); assay type: in vivo, mouse (Crj:CD-1 (ICR)); settings: topical, read-out: Itching inhibition ratio % (Concentration %)
Experimental: 1) Preparation of the compound and the reagent: The compound being tested was dissolved in acetone (SIGMA). Compound 48/80 (SIGMA) was dissolved in physiological saline (m by Otsuka Pharmaceutical Co., Ltd.) so as to be 60 μg/mL.
2) Animals: Female Crj: CD-1 (ICR) mice of 6 to 10 age in week (Japan Charles Liver) were used as laboratory animals. The animals were fed in the barrier breeding room where […] in room temperature, 30 to 70% in humidity, and the light and shade condition existed every 12 hours and feed (CE-2: Japan Crea) and the drinking water were freely taken. The hair of dorsa (from the cervical region of the back to the center of the back) of the animals were cut with a hair clipper two days or more before the anti-pruritic activity is evaluated, those with no wound, rubefaction, and thickening of the skin on the dehaired part were chosen and supplied to the experiment on the day of the evaluation. 3) Evaluation procedures: The acetone solution of the compound being tested was applied by 50 μL on the dehaired parts of the mice with a pipeter. On the mice of the control group, 50 μL of acetone was applied. The 15 minutes later, 50 μL (corresponding to 3 μg) of Compound 48/80 solution was injected intradermally in the compound applied parts with the use of a injector (Terumo Corporation), the mice were individually put in five observation cages made of acrylate resin at once, and the scratching action (action of scratching the injection part by the hind leg) frequency during 30 minutes was measured. The evaluation was carried out in one group of 5 to 7 mice. 4) Data processing: The experiment results were shown by the mean values. The test of the significant difference of the compound applying group to the control group was conducted with Welch's t-test, and p<0.05 was assumed to be significant.

[2] = target: T1, CB1 receptor (Homo sapiens, UniProt P21554); experiment: Human cannabinoid receptor bonding inhibition test ([3H]CP55940), CB1; assay type: binding; parameters: expressed in transfected cells; membrane fraction
T1 sequence (P21554 whole entry): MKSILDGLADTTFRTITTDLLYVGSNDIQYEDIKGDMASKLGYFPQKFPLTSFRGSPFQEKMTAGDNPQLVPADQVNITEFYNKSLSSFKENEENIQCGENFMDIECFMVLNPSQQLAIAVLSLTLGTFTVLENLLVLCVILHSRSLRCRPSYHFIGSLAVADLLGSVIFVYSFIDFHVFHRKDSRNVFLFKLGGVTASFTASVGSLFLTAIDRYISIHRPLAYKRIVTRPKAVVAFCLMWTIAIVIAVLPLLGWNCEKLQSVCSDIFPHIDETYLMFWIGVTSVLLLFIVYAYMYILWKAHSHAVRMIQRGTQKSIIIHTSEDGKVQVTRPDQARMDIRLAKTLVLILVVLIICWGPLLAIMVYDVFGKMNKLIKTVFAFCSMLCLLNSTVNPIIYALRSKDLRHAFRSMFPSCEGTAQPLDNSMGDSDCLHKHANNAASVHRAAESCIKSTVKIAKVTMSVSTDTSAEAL

[3] = target: T2, CB2 receptor (Homo sapiens, UniProt P34972); experiment: Human cannabinoid receptor bonding inhibition test ([3H]CP55940), CB2; assay type: binding; parameters: expressed in transfected cells; membrane fraction
T2 sequence (P34972 whole entry): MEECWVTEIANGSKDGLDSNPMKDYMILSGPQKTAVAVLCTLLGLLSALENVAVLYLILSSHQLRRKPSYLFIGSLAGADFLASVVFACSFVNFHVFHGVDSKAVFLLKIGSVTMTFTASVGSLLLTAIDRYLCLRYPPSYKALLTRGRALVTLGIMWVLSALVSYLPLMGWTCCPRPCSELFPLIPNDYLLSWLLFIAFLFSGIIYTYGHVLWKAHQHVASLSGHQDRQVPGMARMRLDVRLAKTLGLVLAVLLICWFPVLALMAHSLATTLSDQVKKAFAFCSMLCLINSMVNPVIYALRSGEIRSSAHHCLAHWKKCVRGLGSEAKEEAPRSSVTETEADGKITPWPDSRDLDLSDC

[4] = target: T1, CB1 receptor; experiment: cAMP formation inhibition experiment through a cannabinoid receptor (forskolin stimulation), CB1; assay type: cell-based; parameters: expressed in transfected cells; host or cells: CHO cells
Experimental: A compound being tested was added in the CHO cell which had mad human CB1 or CB2 receptor reveal and incubated for 15 minutes, and then forskolin (the final concentration 4 μM, and manufactured by SIGMA Corp.) was added and the mixture was incubated for 20 minutes. After the reaction had been stopped by adding 1M hydrochloric acid, the amount of cAMP in the supernatant was measured with the use of Cyclic AMP kit (made by the CIS Diagnostic Corp.).

[5] = target: T2, CB2 receptor; experiment: cAMP formation inhibition experiment through a cannabinoid receptor (forskolin stimulation), CB2; assay type: cell-based; parameters: expressed in transfected cells; host or cells: CHO cells
[6] = read-out: Binding activity (nM) CB1
[7] = read-out: Agonist activity (nM) CB2
[8] = read-out: Agonist activity (nM) CB1
[9] = [3H]CP55940 0.5 nM, membrane preparation of CHO cells expressing CB1, Ki calculated from IC50, read-out: Binding activity (nM) CB1
[10] = [3H]CP55940 0.5 nM, membrane preparation of CHO cells expressing CB2, Ki calculated from IC50, read-out: Binding activity (nM) CB2

SMILES	Ki [3] [nM]	inhibition in vivo at 3 % ([1]; Mus musculus) [%]	IC50 [4, 8] [nM]	IC50 [5] [nM]	Ki [2] [nM]	other results
CC(C)(NC(=O)c1cc2c(n(CC3CCCCC3)c1=O)CCCCCC2)C(=O)NN						melting point: 177 to 180 °C
CCCCn1c(CCC)c(CC)cc(C(=O)NC2CCCCC2C(=O)O)c1=O (stereo not drawn)						melting point: 167 to 169 °C
CN1CCN(C(=O)C(C)(C)NC(=O)c2cc3c(n(CC4CCCCC4)c2=O)CCCCCC3)CC1						melting point: 183 to 184 °C
CCCCn1c(CCC)c(CC)cc(C(=O)NC2(C(=O)O)CCCCC2)c1=O [Compound I-411]						inhibition in vivo at 0.5 % ([1]; Mus musculus): 80%; Ki [2, 6]: > 2000 nM; Ki ([3]; read-out: Binding activity (nM) CB2): 382 nM; IC50 [4]: > 2000 nM; IC50 [5, 7]: 556 nM
O=C(O)COc1ccc(NC(=O)c2cc3c(n(CC4CCCCC4)c2=O)CCCCCC3)cc1 [Compound X-220]	18					inhibition in vivo at 0.5 % ([1]; Mus musculus): 97%; Ki [2, 6]: 555 nM; IC50 [4]: 1550 nM; IC50 [5, 7]: 231 nM
COC(=O)NCCCn1c2c(cc(C(=O)NC(C)(C)C(=O)OC)c1=O)CCCCCC2 (as salt: phosphate)						melting point: 135 to 136 °C
CC(C)(NC(=O)c1cc2c(n(CC3CCCCC3)c1=O)CCCCCC2)C(=O)NNS(C)(=O)=O [Compound I-052, 1-cyclohexylmethyl-2-oxo-1,2,5,6,7,8,9,10-octahydro-cycloocta[b]pyridine-3-carboxylic acid (1-methylsulfonylhydrazinocarbonyl-1-methyl-ethyl)-amide]		80	49	8.1		melting point: 177 to 178 °C
CC(C)CCn1c2c(cc(C(=O)NC(C(=O)O)c3cccs3)c1=O)CCCCCC2 (stereo not drawn) [Compound I-551]	2.2		135	< 2	50	inhibition in vivo at 2 % ([1]; Mus musculus): 51%
CC(C)(NC(=O)c1cc2c(n(CCCNS(C)(=O)=O)c1=O)CCCCCC2)C(=O)O						melting point: 183 to 184 °C
CC(=O)N1CCN(C(=O)C(C)(C)NC(=O)c2cc3c(n(CC4CCCCC4)c2=O)CCCCCC3)CC1 [Compound I-579]	7.3	99		27		Ki [2, 9]: 158 nM; IC50 [4]: 431 nM
O=C(O)Cc1csc(NC(=O)c2cc3c(n(CC4CCCCC4)c2=O)CCCCCC3)c1 [IV-029]	43			22		inhibition in vivo at 1 % ([1]; Mus musculus): 93%; Ki [2, 9]: 1320 nM; IC50 [4]: 606 nM
O=C(O)CC1(NC(=O)c2cc3c(n(CC4CCCCC4)c2=O)CCCCCC3)CCCCC1 [II-073]	6.2	58	11	0.2	88	
CC(C)(NC(=O)c1cc2c(n(CC3CCCCC3)c1=O)CCCCCC2)C(=O)N1CCC(NS(=O)(=O)C(C)(C)C)CC1 [Compound I-048]	2.6	58	328	17	118	
O=C(N[C@@H](C(=O)O)c1ccccc1)c1cc2c(n(CCCC(F)(F)F)c1=O)CCCCCC2 [Compound X-54]	< 2		> 2000	3.7	93	inhibition in vivo at 1 % ([1]; Mus musculus): 100%
CC(C)(CNCCC(N)=O)NC(=O)c1cc2c(n(CC3CCCCC3)c1=O)CCCCCC2 [Compound I-588]	10		72	5.7	41	inhibition in vivo at 1 % ([1]; Mus musculus): 81%
O=C(O)Cc1cnc(NC(=O)c2cc3c(n(CCCC(F)(F)F)c2=O)CCCCCC3)s1 [Compound X-115]	3.3			8.6		inhibition in vivo at 0.5 % ([1]; Mus musculus): 67%; Ki [2, 9]: 1220 nM; IC50 [4]: > 2000 nM
CC(C)(NC(=O)c1cc2c(n(CC3CCCCC3)c1=O)CCCCCC2)C(=O)NNC(=O)c1cccnc1 [Compound I-556]	< 2	76	357	3.5	8.1	
CC(C)(NC(=O)c1cc2c(n(CC3CCCCC3)c1=O)CCCCCC2)C(=O)Nc1ccc(NS(C)(=O)=O)cc1 [Compound I-533]	< 2	73	> 2000	< 2	21	
COC(=O)C(C)(C)NC(=O)c1cc2c(n(CC3CCCCC3)c1=O)CCCCCC2 [Compound I-084, methyl 2-[(1-cyclohexylmethyl-2-oxo-1,2,5,6,7,8,9,10-octahydro-cycloocta[b]pyridine-3-carbonyl]-amino}-2-methyl-propionate]	< 2		< 2	< 2	< 2	inhibition in vivo at 0.1 % ([1]; Mus musculus): 60%
CC(C)(C)OC(=O)NC1CCN(C(=O)C(C)(C)NC(=O)c2cc3c(n(CC4CCCCC4)c2=O)CCCCCC3)CC1 [Compound I-570]	11	84	709	12	68	
CC(C)NC(=O)N1CCN(C(=O)C(C)(C)NC(=O)c2cc3c(n(CC4CCCCC4)c2=O)CCCCCC3)CC1 [Compound I-604]	2.5	95	55	4.8	16	
O=C(O)Cc1nsc(NC(=O)c2cc3c(n(CC4CCCCC4)c2=O)CCCCCC3)n1 [Compound X-21]	3.3			30		inhibition in vivo at 1 % ([1]; Mus musculus): 106%; Ki [2, 9]: 1770 nM; IC50 [4]: > 2000 nM
CCc1c(C)cc(C(=O)N[C@H](C(=O)NC(CO)CO)C(C)(C)C)c(=O)n1CC1CCCCC1 [Compound I-038]	< 2	67	34	< 2	7.1	
CCNC(=O)C1CCCN(C(=O)C(C)(C)NC(=O)c2cc3c(n(CC4CCCCC4)c2=O)CCCCCC3)C1 (stereo not drawn) [Compound I-595]	9.5	108		30		Ki [2, 9]: 354 nM; IC50 [4]: 1210 nM
CC(C)(NC(=O)c1cc2c(n(CC3CCCCC3)c1=O)CCCCCC2)C(=O)NCC(N)=O [Compound I-054]			51	15		inhibition in vivo at 2 % ([1]; Mus musculus): 63%; Ki [2, 9]: 11 nM; Ki [3, 10]: 6 nM
O=C(O)CCc1csc(NC(=O)c2cc3c(n(CC4CCCCC4)c2=O)CCCCCC3)n1 [Compound X-64]						inhibition in vivo at 1 % ([1]; applied as acetone solution 50 μL, concentration 1.0%, mouse, Compound 48/80): 99%; Ki [2, 9]: 580 nM; Ki [3, 10]: 18 nM; IC50 ([4]; inhibition of forskolin (4 μM)-stimulated cAMP formation, CHO cells expressing human CB1, read-out: Agonist activity (nM) CB1): 454 nM; IC50 ([5]; inhibition of forskolin (4 μM)-stimulated cAMP formation, CHO cells expressing human CB2, read-out: Agonist activity (nM) CB2): 15 nM
O=C(O)CC(NC(=O)c1cc2c(n(CC3CCCCC3)c1=O)CCCCCC2)C(F)(F)F (stereo not drawn) [II-076]	41	86		1.2		Ki [2, 9]: > 2000 nM; IC50 [4]: > 2000 nM
